Where two headings read alike, the source gives them in different places.
Biological target: T1, human APJ receptor (Homo sapiens, UniProt P35414)
T1 construct: expressed in transfected cells; host or cells: HEK293
T1 sequence (P35414 1-380): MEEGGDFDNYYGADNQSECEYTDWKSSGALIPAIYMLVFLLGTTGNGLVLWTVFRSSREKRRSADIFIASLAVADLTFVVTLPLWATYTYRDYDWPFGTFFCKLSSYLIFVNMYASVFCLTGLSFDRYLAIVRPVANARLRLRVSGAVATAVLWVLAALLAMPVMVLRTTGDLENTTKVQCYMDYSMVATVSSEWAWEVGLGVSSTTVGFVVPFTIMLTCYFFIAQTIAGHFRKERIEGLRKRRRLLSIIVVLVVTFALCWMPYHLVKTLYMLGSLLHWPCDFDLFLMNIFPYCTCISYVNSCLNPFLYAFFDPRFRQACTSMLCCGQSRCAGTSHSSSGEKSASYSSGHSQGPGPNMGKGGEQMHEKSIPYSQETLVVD
Test: Intracellular cAMP Accumulation Assay (APJ hcAMP, HTRF)
Assay type: cell-based
Outline: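 Stably transfected HEK293 cells (5,000/well) incubated 30 min at room temperature with serially diluted compound, […] and 2 μM forskolin. cAMP measured by HTRF after 60 min with detection reagents, quantified against a cAMP standard curve; EC50 from variable-slope sigmoidal fit of inhibition of forskolin-stimulated cAMP.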

[1] = human APJ, cAMP accumulation, potency range class, read-out: hAPJ cAMP EC50 Potency range
[2] = human APJ, intracellular cAMP accumulation, read-out: hAPJ cAMP EC50 Potency range
[3] = read-out: hAPJ cAMP EC50 Potency range

Row | EC50 [1] [nM] | EC50 [2] [nM] | SMILES | also measured
1 | – | 0.01 to 10 | CC[C@@H](c1cc(F)cc(F)c1)n1c(-c2ccn(C)n2)nc(=O)c(C(=O)N2CCC(c3ccc(Cl)cn3)C2)c1O (single isomer, unassigned) [Example 190] | –
2 | 0.01 to 10 | – | COc1cccc(OC)c1-n1c(-c2ccc(Cl)cn2)nc(=O)c(C(=O)N2CCC(c3c(F)cccc3F)C2)c1O (single isomer, unassigned) [Example 280, 2-(5-chloropyridin-2-yl)-5-[3-(2,6-difluorophenyl)pyrrolidine-1-carbonyl]-1-(2,6-dimethoxyphenyl)-6-hydroxy-1,4-dihydropyrimidin-4-one] | –
3 | – | 0.01 to 10 | COc1cccc(OC)c1-n1c(COC(C)C)nc(=O)c(C(=O)N2CCC(c3ccccc3F)C2)c1O (single isomer, unassigned) [Example 93, 1-(2,6-dimethoxyphenyl)-5-[3-(2-fluorophenyl)pyrrolidine-1-carbonyl]-6-hydroxy-2-[(propan-2-yloxy)methyl]-1,4-dihydropyrimidin-4-one] | –
4 | 0.01 to 10 | – | CCc1cccc(CC)c1-n1c(-c2cnn(CC)c2)nc(=O)c(C(=O)N2CCC(c3ncc(F)cc3F)C2)c1O (single isomer, unassigned) [Example 315, 1-(2,6-diethylphenyl)-5-[3-(3,5-difluoropyridin-2-yl)pyrrolidine-1-carbonyl]-2-(1-ethyl-1H-pyrazol-4-yl)-6-hydroxy-1,4-dihydropyrimidin-4-one] | –
5 | 0.01 to 10 | – | CCc1cccc(CC)c1-n1c(-c2ccn(CC)n2)nc(=O)c(C(=O)N2CCC(c3ncccc3F)C2)c1O (single isomer, unassigned) [Example 308, 1-(2,6-diethylphenyl)-2-(1-ethyl-1H-pyrazol-3-yl)-5-[3-(3-fluoropyridin-2-yl)pyrrolidine-1-carbonyl]-6-hydroxy-1,4-dihydropyrimidin-4-one] | –
6 | 0.01 to 10 | – | CCc1cccc(CC)c1-n1c(-c2ccn(C)n2)nc(=O)c(C(=O)N2CCC(c3ccc(F)cc3)C2)c1O (single isomer, unassigned) [Example 272, 1-(2,6-diethylphenyl)-5-[3-(4-fluorophenyl)pyrrolidine-1-carbonyl]-6-hydroxy-2-(1-methyl-1H-pyrazol-3-yl)-1,4-dihydropyrimidin-4-one] | –
7 | 0.01 to 10 | – | CCc1cccc(CC)c1-n1c(-c2csc(C(C)C)n2)nc(=O)c(C(=O)N2CC[C@@H](c3ccccc3)C2)c1O [Example 299, 1-(2,6-diethylphenyl)-6-hydroxy-5-[(3S)-3-phenylpyrrolidine-1-carbonyl]-2-[2-(propan-2-yl)-1,3-thiazol-4-yl]-1,4-dihydropyrimidin-4-one] | –
8 | – | 0.01 to 10 | CC[C@@H](c1cc(F)cc(F)c1)n1c(-c2ccn(CC)n2)nc(=O)c(C(=O)N2CCC(c3cc(F)ccn3)C2)c1O (single isomer, unassigned) [Example 202] | –

More lines, now with the values behind:

Row | SMILES | EC50 [1] [nM] | EC50 [2] [nM] | also measured
9 | CCCCc1nc(O)c(C(=O)N2CCC(c3ncc(F)cc3F)C2)c(=O)n1[C@@H](CC)c1ccccc1 (single isomer, unassigned) [Example 345] | 0.01 to 10 | – | –
10 | COc1cccc(OC)c1-n1c(-c2ccc(F)cc2)nc(=O)c(C(=O)N2CCC(c3ccccc3Cl)C2)c1O (single isomer, unassigned) [Example 229, 5-[3-(2-chlorophenyl)pyrrolidine-1-carbonyl]-1-(2,6-dimethoxyphenyl)-2-(4-fluorophenyl)-6-hydroxy-1,4-dihydropyrimidin-4-one] | 0.01 to 10 | – | –
11 | C=CCCc1nc(=O)c(C(=O)N2CC[C@H](c3ccccc3)C2)c(O)n1-c1c(OC)cccc1OC [Example 27, (R)-2-(but-3-en-1-yl)-3-(2,6-dimethoxyphenyl)-6-hydroxy-5-(3-phenylpyrrolidine-1-carbonyl)pyrimidin-4(3H)-one] | – | – | EC50: 0.01 to 10 nM
12 | CCOCc1nc(=O)c(C(=O)N2CCC(Cc3ccc(F)cc3)CC2)c(O)n1-c1c(OC)cccc1OC [Example 374, 1-(2,6-dimethoxyphenyl)-2-(ethoxymethyl)-5-(4-(4-fluorobenzyl)piperidine-1-carbonyl)-6-hydroxypyrimidin-4(1H)-one] | – | – | EC50 [3]: 0.01 to 10 nM
13 | CCCCc1nc(=O)c(C(=O)N2CC[C@@H](c3ccccc3)C2)c(O)n1[C@H](C)C1CC1 [Example 155, 2-butyl-3-[(1R)-1-cyclopropylethyl]-6-hydroxy-5-[(3S)-3-phenylpyrrolidine-1-carbonyl]-3,4-dihydropyrimidin-4-one] | – | 100 to 300 | –
14 | CCOCc1nc(=O)c(C(=O)N2CC[C@H](OCc3ccccc3)C2)c(O)n1-c1c(OC)cccc1OC [Example 376, (S)-5-(3-(benzyloxy)pyrrolidine-1-carbonyl)-1-(2,6-dimethoxyphenyl)-2-(ethoxymethyl)-6-hydroxypyrimidin-4(1H)-one] | – | – | EC50 [3]: 0.01 to 10 nM
15 | CCCCc1nc(=O)c(C(=O)N2CCC(c3ccc(F)cc3)CC2)c(O)n1-c1c(OC)cccc1OC [Example 74, 2-butyl-1-(2,6-dimethoxyphenyl)-5-[4-(4-fluorophenyl)piperidine-1-carbonyl]-6-hydroxy-1,4-dihydropyrimidin-4-one] | – | 10 to 100 | –
16 | CCCCc1nc(=O)c(C(=O)N2CCC(Oc3ccc(C(C)(C)C)cc3)CC2)c(O)n1-c1c(OC)cccc1OC [Example 381, 2-butyl-5-(4-(4-(tert-butyl)phenoxy)piperidine-1-carbonyl)-1-(2,6-dimethoxyphenyl)-6-hydroxypyrimidin-4(1H)-one] | – | – | EC50 [3]: 10 to 100 nM
17 | COc1cccc(OC)c1-n1c(COC(C)C)nc(=O)c(C(=O)N2CC[C@H](c3ccccc3)C2)c1O [Example 12, (R)-1-(2,6-dimethoxyphenyl)-6-hydroxy-2-(isopropoxymethyl)-5-(3-phenylpyrrolidine-1-carbonyl)pyrimidin-4(1H)-one] | – | 0.01 to 10 | –
18 | CCCCc1nc(=O)c(C(=O)N2CC[C@H](OCc3ccccn3)C2)c(O)n1-c1c(OC)cccc1OC [Example 64, 2-butyl-1-(2,6-dimethoxyphenyl)-6-hydroxy-5-[(3S)-3-[(pyridin-2-yl)methoxy]pyrrolidine-1-carbonyl]-1,4-dihydropyrimidin-4-one] | – | 0.01 to 10 | –
19 | COc1cccc(OC)c1-n1c(CCC2CC2)nc(=O)c(C(=O)N2CCC(c3ncc(F)cc3F)C2)c1O (single isomer, unassigned) [Example 168, 2-(2-cyclopropylethyl)-5-[3-(3,5-difluoropyridin-2-yl)pyrrolidine-1-carbonyl]-1-(2,6-dimethoxyphenyl)-6-hydroxy-1,4-dihydropyrimidin-4-one] | – | 0.01 to 10 | –
20 | CCOCc1nc(=O)c(C(=O)N2CC[C@H](c3ccccc3)C2)c(O)n1-c1c(OC)cccc1OC [Example 23, (R)-1-(2,6-dimethoxyphenyl)-2-(ethoxymethyl)-6-hydroxy-5-(3-phenylpyrrolidine-1-carbonyl)pyrimidin-4(1H)-one] | – | – | EC50: 0.01 to 10 nM
21 | COc1cccc(OC)c1-n1c(CC2CC2)nc(=O)c(C(=O)N2CC[C@@H](c3ccccc3)C2)c1O [Example 31, (S)-2-(cyclopropylmethyl)-3-(2,6-dimethoxyphenyl)-6-hydroxy-5-(3-phenylpyrrolidine-1-carbonyl)pyrimidin-4(3H)-one] | – | 0.01 to 10 | –
22 | CCCCc1nc(=O)c(C(=O)N2CC[C@H](c3ccccc3)C2)c(O)n1[C@@H](C)c1ccccc1 [Example 141, 2-butyl-6-hydroxy-3-[(1S)-1-phenylethyl]-5-[(3R)-3-phenylpyrrolidine-1-carbonyl]-3,4-dihydropyrimidin-4-one] | – | 10 to 100 | –

Reference: US10590113B2, “6-hydroxy-4-oxo-1,4-dihydropyrimidine-5-carboxamides as APJ agonists” (priority 2016, dated 2020)
